Experimental data reported in patent US20250163052A1, “cGAS INHIBITORS AND USES THEREOF” (Cornell University, priority 2022, published 2025).

Columns and labels:
P301S mice [1] = assay: Novel object recognition test in P301S mice fed TDI-6570 diet; format: in vivo, mouse; conditions: 150 mg/kg diet for three months
Text: (§1) P301S transgenic mice (https://www.jax.org/strain/008169) were crossed with cGas knockout mice (https://www.jax.org/strain/026554) to generate littermate P301S cGas+/+ mice, P301S cGas+/− and littermate P301S cGas−/− mice, as well as non-transgenic littermates. Mice of both sexes were used behavioral, histological and biochemical analyses. Mice underwent behavioral testing at 7 to 8 months of age and had not been used for any other experiments. At 9 to 10 months of age, the same mice were used for pathology and RNA-seq studies. For TDI-6570 in vivo treatment, P301S and non-transgenic littermate mice at 6-7 months were used for diet experiments and were assayed for behavior and histology at 9-10 months. Mice were housed under specific pathogen-free conditions under a 12 h light-dark cycle and all mouse protocols were approved by the Institutional Animal Care and Use Committee, University of California, San Francisco.
For experiments involving TDI-6570 treatment, male P301S and Non-transgenic littermates fed with TDI-6570 or control diet were used.
Mice were habituated to opaque open field arenas (40×40 cm) for two 10-minute trials spaced on the two days leading up to object recognition. […] An experimenter blind to the groups manually scored the time mice spent exploring each object. Preference was calculated based on the total time an individual mouse spent exploring both objects. […]

[2] = Protein binding in mouse brain homogenates; format: in vitro ADME
[3] = Metabolic stability in human liver microsomes
[4] = Metabolic stability in mouse liver microsomes
P301S mice [5] = assay: Immunofluorescent staining of hippocampal synapses (PSD-95, vGAT) in P301S mice; format: in vivo, mouse; conditions: hippocampal CA1, 150 mg/kg diet for three months
Text: as §1
Hemibrains from transcardially perfused mice were placed in 4% paraformaldehyde for 48 h, followed by 30% sucrose PBS for 48 h at 4° C. Sections were cut coronally at 40 μm using a freezing microtome (Leica) and placed in cryoprotective medium at −20° C. until use. 8-10 free floating sections per mouse. […] Quantification was done using ImageJ software (NIH) using percentage area based on thresholding determined using negative and positive controls. […]

With `Cn1c2c(c3ccc(Cl)c(F)c31)CN(C(=O)CO)CC2` [TDI-6570, reference compound] the “Defect in recognizing the novel object (novel object recognition test)” value (P301S mice [1]) was “rescued”, the “% Recovery” value [2] was 89.39% and the LogK [2] was 2.38. The “% Remaining at 6 hr” value ([2]; 6 hr) was 94.51%, the “Remaining (NCF = 60 min)” value ([3]; human liver microsomes, 60 min, no co-factor (no NADPH)) was 120.6% and the “Remaining (T = 60 min)” value ([3]; human liver microsomes, 60 min with NADPH) was 11.3%. The “CLint(liver)” value ([3]; human liver microsomes, scaled from CLint(mic)) was 68.2 mL/min/kg, the “CLint(mic)” value ([3]; human, liver microsomes) was 75.8 µL/min/mg and the “T½” value ([3]; human, liver microsomes) was 18.3 min. The “Remaining (NCF = 60 min)” value ([4]; mouse liver microsomes, 60 min, no co-factor (no NADPH)) was 100.0%, the “Remaining (T = 60 min)” value ([4]; mouse liver microsomes, 60 min with NADPH) was 0.0% and the “CLint(liver)” value ([4]; mouse liver microsomes, scaled from CLint(mic)) was 997.5 mL/min/kg. The “CLint(mic)” value ([4]; mouse, liver microsomes) was 251.9 µL/min/mg, the “T½” value ([4]; mouse, liver microsomes) was 5.5 min and the “P301S-dependent excitatory synapse loss (PSD-95)” value (P301S mice [5]) was “rescued”. For the same compound, the “P301S-dependent inhibitory synapse loss (vGAT)” value (P301S mice [5]) was “rescued”.
